Laboratory results taken from patent US20200038410A1, “METHODS FOR TREATING NEUROPATHY” (Loyola University Chicago, priority 2018, published 2020).

Tests used:
[1] = tested on: organotypic DRG cultures; assay: Palmitate-induced ER stress markers (mRNA) in organotypic whole DRG cultures; type: cell-based, mice; conditions: palmitate treated organotypic DRG cultures, compared to vehicle; FIG. 1E
From the text: (§1) FIG. 1A is a chart representing distribution of nuclear receptor mRNA in the whole DRG. Normalized mRNA expression levels were defined as Absent if the Ct value was greater than 40, Low if the level was […] arbitrary units, Moderate if the level was between 0.025 and 0.25, and High if the level was greater than 0.25 arbitrary units. […] FIGS. 1D and 1F represent data of protein levels of CHOP, an ER stress marker, in DRG of mice fed western diet (WD) compared to normal chow (NC) (FIG. 1D, n=10 DRG/group), and in ex vivo organotypic whole DRG cultures treated with palmitate and LXR agonist (FIG. 1F, n=individual experiments in triplicate). FIGS. 1C, 1E, and 1G represent data of mRNA levels of ER stress markers using 18S to normalize, in DRG of WD and NC fed mice (FIG. 1C, n=4 mice/group), in organotypic whole DRG cultures (FIG. 1E), and in primary neuronal culture of DRG neurons treated with LXR agonist and palmitate (FIG. 1G, n=5 individual experiments). (All values are Mean±S.E.M, with vehicle group defined as 100%; *p<0.05 with vehicle; **p<0.05 with vehicle+palmitate).
ER stress has been identified as a potential culprit underlying type 1 and type 2 diabetes. Increased expression of the ER stress marker CHOP was reported in metabolic tissues of diabetic mice, while targeted disruption of CHOP gene delayed the onset of diabetes. […]

[2] = tested on: 80-week old mice presenting signs of neuropathy; assay: Intra epidermal nerve fibers density in paw skin of 80-week old mice with neuropathy; type: in vivo; conditions: gavaged twice a week for three months, skin of paws, FIG. 6
From the text: FIG. 6 is a bar chart evidencing that treatments with a mixed solution of butyrate and an LXR agonist (GW3965) trigger an enhanced regeneration mechanism that improves neuropathy.
In an additional investigation, 80-week old mice presenting signs of neuropathy (loss of fibers in the skin) were gavaged twice a week during a three-month period with a GW3965 solution or a mixed solution of GW3965 and butyrate using the indicated concentrations reported in FIG. 6. After three months, the mice were euthanized and the intra epidermal nerve fibers density was counted in the skin of their paws.

[3] = tested on: DRG primary neuronal cultures; assay: Palmitate-induced ER stress markers and lpcat3 mRNA in DRG primary neuronal cultures; type: cell-based, mice; conditions: DRG neurons stimulated by LXR agonist; FIG. 1G
From the text: as §1
Previous research has shown that LXRs could be involved in the regulation of organelles/membrane phospholipid composition by regulating the expression of LPCAT3 (lysophospholipid acyltransferase).

[4] = tested on: DRG of WD-fed mice; assay: ER stress marker (UPR target gene) mRNA in DRG of WD-fed mice treated with agonist; type: in vivo; conditions: 25 mg/kg i.p. twice a week for three weeks, FIG. 2D
From the text: End point levels of serum triglycerides (FIG. 2B), cholesterol (FIG. 2C), in mice fed NC or WD treated with agonist. FIG. 2D represents mRNA levels of ER stress markers normalized to 18S in DRG of NC or WD-fed mice treated with LXR agonist. (n=4 mice/group; all values are Mean±S.E.M; for mRNA relative levels were plotted with NC-vehicle group defined as 100%; *p<0.05 with NC-Veh; **p<0.05 with WD-Veh). The above data linking LXR and ER stress in DRG led the inventors to assess whether activation of LXRs could change the WD-induced allodynia. WT mice were fed either NC or WD for a total of twelve weeks after weaning, while assessing the onset and progression of allodynia. […] Weight-matched mice on either diet were treated for three weeks with either GW3965 (25 mg/kg body weight; twice a week by i.p.) or vehicle after eight weeks of WD diet (twelve weeks of age). As activation of LXRs elevated triglyceride levels in liver and plasma, the dosage of LXR agonist was adjusted to minimize the increase of triglyceride and cholesterol (FIGS. 2B and 2C). Sensitivity of mice to innocuous stimuli was evaluated over the duration of GW3965 treatment. […] Then, the expression of UPR target genes in DRG of NC- or WD-fed mice treated with vehicle or GW3965 was compared.

[5] = tested on: LXRs in organotypic cultures of DRG; assay: LXR target gene expression (ABCA1) in organotypic cultures of DRG; type: cell-based, mice; conditions: organotypic cultures of DRG stimulated with GW3965; FIG. 1B
From the text: as §1, with “vehicle+palmitate). […]” for “vehicle+palmitate).”

[6] = tested on: WD-fed mice; assay: Western diet-induced allodynia, von Frey test; type: in vivo; conditions: 25 mg/kg i.p. twice a week for three weeks after eight weeks of WD, compared to WD vehicle, FIG. 2A
From the text: End point levels of serum triglycerides (FIG. 2B), cholesterol (FIG. 2C), in mice fed NC or WD treated with agonist. FIG. 2D represents mRNA levels of ER stress markers normalized to 18S in DRG of NC or WD-fed mice treated with LXR agonist. (n=4 mice/group; all values are Mean±S.E.M; for mRNA relative levels were plotted with NC-vehicle group defined as 100%; *p<0.05 with NC-Veh; **p<0.05 with WD-Veh). The mechanical hypersensitivity observed early in peripheral neuropathy is believed to be associated with metabolic syndrome and independent of diabetes. […] The von Frey test was performed and measured phasic response frequency to calculate the 50% threshold in WD and NC-fed mice. […] The above data linking LXR and ER stress in DRG led the inventors to assess whether activation of LXRs could change the WD-induced allodynia. WT mice were fed either NC or WD for a total of twelve weeks after weaning, while assessing the onset and progression of allodynia. […] Weight-matched mice on either diet were treated for three weeks with either GW3965 (25 mg/kg body weight; twice a week by i.p.) or vehicle after eight weeks of WD diet (twelve weeks of age). […] Sensitivity of mice to innocuous stimuli was evaluated over the duration of GW3965 treatment. […]

[7] = tested on: Nav1.8 expressing neurons of the DRG; assay: ER stress marker mRNA in Nav1.8 expressing sensory neurons (RiboTag IP) of DRG organotypic cultures treated with palmitate; type: cell-based, mice; conditions: Nav1.8 sensory neuron specific mRNA from DRG organotypic cultures, FIG. 3F
From the text: FIGS. 3A through 3F include charts and images representing that an LXR agonist decreased lipid-induced ER stress in DRG neurons expressing Nav1.8. […] FIG. 3B represents the generation of tissue specific RiboTag mouse. Sensory neuron specific (Nav1.8) Cre mice were utilized to generate Ribotag-Nav1.8-Cre mice. FIG. 3C represents data from western blots on whole DRG of RiboTag-Nav1.8-Cre mice after immunoprecipitation for HA. FIG. 3D represents data from immunohistochemistry on DRG slices for HA in sensory neurons (in green—HA, blue—DAPI/nuclei). FIG. 3E represents actin normalized mRNA levels of positive (Nav1.8) and negative (GFAP, PV) markers of Nav1.8 expressing neurons in whole DRG (WT), input, and IP samples. FIG. 3F represents actin normalized mRNA levels of ER stress markers, in sensory neurons treated with LXR agonist and palmitate. Sensory neuron specific mRNA was isolated by immunoprecipitation from whole DRG organotypic cultures treated with agonist and palmitate (n=3 individual experiments). (Values are Mean±S.E.M, with vehicle group defined as 100%; *p<0.05 with vehicle; **p<0.05 with vehicle+palmitate). […] The mRNA levels of ER stress markers undergoing translation were analyzed in Nav1.8 expressing neurons. […]

O=C(O)Cc1cccc(OCCCN(Cc2cccc(C(F)(F)F)c2Cl)CC(c2ccccc2)c2ccccc2)c1 [GW3965]
mRNA levels of ER stress markers [1]: decreased | number of nerves (intra epidermal nerve fibers density) [2]: increased the number the nerves | lpcat3 mRNA [3]: significant increase | expression of ER stress markers in DRG [4]: decreased expression of ER stress markers | LXR canonical gene expression, ATP-binding cassette transporter (ABCA1) [5]: significant increase | progression of WD-induced allodynia (von Frey sensitivity to innocuous stimuli) [6]: delay in the progression of WD-induced allodynia | CHOP, ATF4, and sXBP1 mRNA levels increased by palmitate [7]: blunted
